Columns and labels:
HSB-2 cells = test: Inhibition of HSB-2 leukemic cell line proliferation (WST-1); format: cell-based, human; settings: cytotoxicity on HSB-2 cells, two days incubation, WST-1 read-out
Description: (§1) HSB2 cell line, a human acute lymphoblastic leukemia (ATCC; CCL-120.1) cell line, was grown in RPMI-1640 medium (Lonza, Belgium) supplemented with 10% fetal calf serum (Hyclone, US) and antibiotics. Exponential growing phase cells were seed in flat bottom 96-well microplates (TTP, Switzerland) at 50000 cells per well in 220 μl of medium with compounds (in different concentrations) and incubated for two days at 37° C., 5% CO2. After incubation, 100 μl of supernatant were removed and 10 μl of WST-1 (Roche, Switzerland) were added. After 2 hour incubation at 37° C., 5% CO2, optical densities were measured at 450 nm. Proliferation is calculated with respect of control points (no compound and treatment with Triton X100 to have maximum and minimum proliferation data). The IC50 was determined from a graph with at least four points, each derived from the mean of at least 2 experiments. […] The results are shown in Table 1 for a number of compounds.

HL-60 cells = test: Inhibition of HL-60 leukemic cell line proliferation (WST-1); format: cell-based, human; settings: cytotoxicity on HL-60 cells, two days incubation, WST-1 read-out
Description: as §1, with “HL-60 cell” for “HSB2 cell”, “human promyelocytic” for “human acute lymphoblastic”, “(ATCC; CCL-240)” for “(ATCC; CCL-120.1)”, “Table 2” for “Table 1”

Compound	IC50 (HSB-2 cells; Homo sapiens, HSB2, 48 h)	IC50 (HL-60 cells; Homo sapiens, 48 h)	IC50 (HSB-2 cells)	IC50 (HL-60 cells)
C[S+]([O-])c1nc2c(N3CCN(C(=O)COc4ccc(Cl)cc4)CC3)nc(N)nc2s1 (stereo not drawn) [Example 126, 5-amino-7-[4-(4-chlorophenoxyacetyl)piperazin-1-yl]-2-methylsulfinyl-thiazolo[5,4-d]pyrimidine]	5.47 µM	3.82 µM	–	–
N#Cc1ccc(NC(=O)N2CCN(c3nc(N)nc4sc(Cc5ccc(F)cc5)nc34)CC2)cc1 [Example 232, 4-(5-amino-2-(4-fluorobenzyl)thiazolo[5,4-d]pyrimidin-7-yl)-N-(4-cyanophenyl)piperazine-1-carboxamide]	6.89 µM	9.89 µM	–	–
Nc1nc(N2CCN(C(=O)COc3cccc([N+](=O)[O-])c3)CC2)c2nc(-c3ccc(F)cc3)sc2n1 [Example 129, 5-amino-2-(4-fluorophenyl)-7-(4-[2-(3-nitrophenoxy)acetyl]-piperazin-1-yl)-thiazolo[5,4-d]pyrimidine]	4.76 µM	9.74 µM	–	–
Nc1nc(N2CCN(C(=O)COc3ccc(Cl)cc3)CC2)c2nc(CCc3cccs3)sc2n1 [Example 154, 5-amino-2-(2-thiophen-2-ylethyl)-7-(4-[2-(4-chloro-phenoxy)acetyl]piperazin-1-yl)thiazolo[5,4-d]pyrimidine]	4.04 µM	6.45 µM	–	–
Nc1nc(N2CCN(C(=O)COc3ccc(Cl)cc3)CC2)c2cc(-c3ccccc3)sc2n1 [Example 329, 1-(4-(2-amino-6-phenylthieno[2,3-d]pyrimidin-4-yl)piperazin-1-yl)-2-(4-chlorophenoxy)ethanone]	13.7 µM	> 10 µM	–	–
Nc1nc(N2CCN(C(=O)Nc3ccc(Cl)cc3)CC2)c2cc(-c3ccccc3)sc2n1 [Example 331, 4-(2-amino-6-phenylthieno[2,3-d]pyrimidin-4-yl)-N-(4-chlorophenyl)piperazine-1-carboxamide]	> 10 µM	> 10 µM	–	–
Nc1nc(N2CCN(C(=O)COc3ccc(Cl)cc3)CC2)c2nc(CCc3ccccc3)oc2n1 [Example 189, 5-amino-2-(2-phenylethyl)-7-[4-(4-chlorophenoxyacetyl)piperazin-1-yl]oxazolo[5,4-d]pyrimidine]	> 10 µM	> 10 µM	–	–
Nc1nc(N2CCN(C(=O)COc3cccc(Cl)c3)CC2)c2nc(-c3ccc(F)cc3)sc2n1 [Example 214, 1-(4-(5-amino-2-(4-fluorophenyl)thiazolo[5,4-d]pyrimidin-7-yl)piperazin-1-yl)-2-(3-chlorophenoxy)ethanone]	0.73 µM	6.02 µM	–	–
Cc1cccc(OCC(=O)N2CCN(c3nc(N)nc4sc(-c5ccc(F)cc5)nc34)CC2)c1 [Example 211, 1-(4-(5-amino-2-(4-fluorophenyl)thiazolo[5,4-d]pyrimidin-7-yl)piperazin-1-yl)-2-(m-tolyloxy)ethanone]	0.47 µM	0.69 µM	–	–
COc1ccc(OCC(=O)N2CCN(c3nc(N)nc4sc(-c5ccccc5)cc34)CC2)cc1 [Example 369, 1-(4-(2-amino-6-phenylthieno[2,3-d]pyrimidin-4-yl)piperazin-1-yl)-2-(4-methoxyphenoxy)ethanone]	5.87 µM	6.05 µM	–	–
Nc1nc(N2CCN(C(=O)COc3ccc(Cl)cc3)CC2)c2nc(C3CC3)oc2n1 [Example 185, 5-amino-2-cyclopropyl-7-[4-(4-chlorophenoxyacetyl)piperazin-1-yl]-oxazolo[5,4-d]pyrimidine]	> 10 µM	> 10 µM	–	–
Nc1nc(N2CCN(C(=O)COc3ccc(Cl)cc3)CC2)c2nc(-c3cccc(Cl)c3)[nH]c2n1 [Example 393, 1-(4-(2-amino-8-(3-chlorophenyl)-9H-purin-6-yl)piperazin-1-yl)-2-(4-chlorophenoxy)ethanone]	1.38 µM	9.18 µM	–	–
Nc1nc(N2CCN(CC(=O)Nc3cccnc3)CC2)c2nc(-c3ccc(F)cc3)[nH]c2n1 [Example 412]	–	–	> 10 µM	> 10 µM
N#Cc1ccc(NC(=O)N2CCN(c3nc(N)nc4sc(-c5cccnc5)nc34)CC2)cc1 [Example 279, 4-(5-amino-2-(pyridin-3-yl)thiazolo[5,4-d]pyrimidin-7-yl)-N-(4-cyanophenyl)piperazine-1-carboxamide]	0.68 µM	0.88 µM	–	–
COc1ccc(-c2nc3c(N4CCN(C(=O)COc5ccc(Cl)cc5)CC4)nc(N)nc3[nH]2)cc1OC [Example 390, 1-(4-(2-amino-8-(3,4-dimethoxyphenyl)-9H-purin-6-yl)piperazin-1-yl)-2-(4-chlorophenoxy)ethanone]	0.45 µM	> 10 µM	–	–
Nc1nc(N2CCN(C(=O)COc3ccccc3)CC2)c2nc(CCc3ccc(F)cc3)sc2n1 [Example 134, 5-amino-2-[2-(4-fluorophenyl)ethyl]-7-(4-[2-phenoxyacetyl]piperazin-1-yl)-thiazolo[5,4-d]pyrimidine]	> 10 µM	> 10 µM	–	–
Nc1nc(N2CCN(C(=O)COc3ccc(Cl)cc3)CC2)c2nc(C3(c4ccc(Cl)cc4)CC3)sc2n1 [Example 117, 5-amino-7-[4-(4-chlorophenoxyacetyl)piperazin-1-yl]-2-(1-(4-chlorophenyl)cyclopropyl)thiazolo[5,4-d]pyrimidine]	6.28 µM	> 10 µM	–	–
Nc1nc(N2CCN(C(=O)COc3ccc(Cl)cc3)CC2)c2ccsc2n1 [Example 351, 1-(4-(2-aminothieno[2,3-d]pyrimidin-4-yl)piperazin-1-yl)-2-(4-chlorophenoxy)ethanone]	1.7 µM	5.08 µM	–	–
Nc1nc(N2CCN(C(=O)COc3ccc(Cl)cc3)CC2)c2nc(SCc3ccccc3)[nH]c2n1 [Example 426, 1-(4-(2-amino-8-(benzylthio)-9H-purin-6-yl)piperazin-1-yl)-2-(4-chlorophenoxy)ethanone]	> 10 µM	> 10 µM	–	–
Nc1nc(N2CCN(C(=O)COc3ccc(Cl)cc3)CC2)c2nc(-c3ccc(Cl)cc3)sc2n1 [Example 123, 5-amino-7-[4-(4-chlorophenoxyacetyl)piperazin-1-yl]-2-(4-chlorophenyl)thiazolo[5,4-d]pyrimidine]	3.73 µM	1.2 µM	–	–
Nc1nc(N2CCN(C(=O)COc3ccc(Cl)cc3)CC2)c2nc(-c3ccc(C(F)(F)F)cc3)[nH]c2n1 [Example 394, 1-(4-(2-amino-8-(4-(trifluoromethyl)phenyl)-9H-purin-6-yl)piperazin-1-yl)-2-(4-chlorophenoxy)ethanone]	7.37 µM	8.78 µM	–	–
Nc1nc(N2CCN(C(=O)COc3cccc([N+](=O)[O-])c3)CC2)c2nc(-c3ccc(F)cc3)oc2n1 [Example 193, 5-amino-2-(4-fluorophenyl)-7-(4-[2-(3-nitrophenoxy)acetyl]-piperazin-1-yl)-oxazolo[5,4-d]pyrimidine]	> 10 µM	> 10 µM	–	–
Nc1nc(N2CCN(C(=O)COc3ccc(Cl)cc3)CC2)c2nc(SC3CCCC3)[nH]c2n1 [Example 429, 1-(4-(2-amino-8-(cyclopentylthio)-9H-purin-6-yl)piperazin-1-yl)-2-(4-chlorophenoxy)ethanone]	7.87 µM	> 10 µM	–	–
Nc1nc(N2CCN(C(=O)COc3ccc(Cl)cc3)CC2)c2nc(CCc3ccccc3)sc2n1 [Example 118, 5-amino-7-[4-(4-chlorophenoxyacetyl)piperazin-1-yl]-2-(2-phenylethyl)thiazolo[5,4-d]pyrimidine]	4.53 µM	9.97 µM	–	–

Source: US9573966B2, “Anti-cancer activity of novel bicyclic heterocycles” (Katholieke Universiteit Leuven, K.U.Leuven R&D, priority 2010, dated 2017)
